According to patent US20220268760A1, “ATRIAL CARDIAC MICROTISSUES FOR CHAMBER-SPECIFIC ARRHYTHMOGENIC TOXICITY RESPONSES” (Brown University, priority 2021, published 2022):

Experiments:
[1] = tested on: 3D ventricular microtissues (hiPSC-ventricular cardiomyocytes with 5% human cardiac fibroblasts); experiment: Optical mapping of action potentials of 3D ventricular microtissues under 1 Hz pacing; assay type: cell-based; settings: for APD30 / APD50 / APD80 / APDTri/APDMxR / Rise Time / APDMxR: mean ± SD
Method: (§1) 3D microtissue generation. Sterile 2% (wt/vol) agarose in PBS were pipetted into 35-microwell molds with hemispherical bottoms (FIG. 1C; 3D Petri Dish®, MicroTissues Inc., see MilliporeSigma, St. Louis, Mo., USA). After casted, hydrogels equilibrated in RPMI/B27 media with 1% Pen/Strep overnight in an incubator. Lactate-purified hiPSC-cardiomyocytes were then harvested, singularized, and suspended in RPMI/B27 media with 10% FBS and 1% Pen/Strep, collecting a subset of the cells for flow cytometry analysis of cTnT and MLC2v expression. […] Cells were allowed to settle into the cylindrical recesses for 30 minutes before adding media supplemented with 5 μM ROCK Inhibitor. Culture medium was changed one day post-seeding and replaced every other day. Self-assembling, spheroidal, and scaffold-free 3D microtissues were electrically field stimulated for six-eight days with a 1 Hz, 10.0 V, and 4.0 milliseconds duration bipolar pulse train (C-Pace EP, IonOptix, Westwood, Mass., USA) to precondition the microtissues before optical mapping. […] et al., Proc. Natl. Acad. Sci., U.S.A., 101, 18129-18134 (2004). The 3D microtissues beat synchronously with 1 Hz stimulation within two days, and tissue compaction were observed within three days post-seeding. Optical mapping of cardiac action potential. The inventors transferred hydrogels containing microtissues to a Petri dish on a temperature-controlled chamber (Dual Automatic Temperature Controller TC-344B, Warner Instrument, Hamden, Conn., USA) to maintain ambient temperatures of 35±1° C. throughout imaging. Microtissues were gently perfused in a solution containing (in mM) 140 NaCl, 5.1 KCl, 1 MgCl2, 1 CaCL2, 0.33 NaH2PO4, 5 HEPES, and 7.5 glucose warmed with an inline heater. Microtissues were allowed to equilibrate in the perfusion solution for thirty minutes and subsequently labeled with a voltage-sensitive dye (5 μM di-4-ANEPPS) for five minutes to enable membrane potential (Vm) recordings of action potential. Excess residual dyes were washed out thoroughly before data collection. An active-pixel sensor (CMOS sensor) camera acquired fluorescence images at 1000 frames-per-second, and action potential traces were reconstructed from fluorescence intensity data. Semi-automated analyses of action potential parameters were conducted using an in-house analysis software and included rise time, […] to maximum repolarization rate ([…]), and APD triangulation ([…]). Screening of arrhythmogenic compounds. […] Three molds of microtissues (two atrial cardiomyocytes and one ventricular cardiomyocytes) were used to test the compound 4-aminopyridine under 1 Hz electrical stimulation with a platinum field electrode (Myopacer EP field stimulator, IonOptix, Westwood, Mass., USA). […] At each dose, the microtissues were allowed to respond to the drug for five-ten minutes before action potential recordings were acquired. At least ten seconds of data were acquired per microtissue at each dose. Instead, three molds of atrial microtissues were used to test the compound ivabradine without electrical stimulation to investigate how action potential properties and spontaneous activity were altered in response to the drug.

[2] = tested on: 3D atrial microtissues (hiPSC-atrial cardiomyocytes with 5% human cardiac fibroblasts); experiment: Optical mapping of action potentials of 3D atrial microtissues under 1 Hz pacing; assay type: cell-based; settings: for APD30 / APD50 / APD80 / APDMxR / APDTri/APDMxR / Rise Time: mean ± SD
Method: as §1

[3] = tested on: 3D atrial microtissues (spontaneous activity, If channel); experiment: Spontaneous action potential activity of atrial microtissues without electrical stimulation; assay type: cell-based, human
Method: 3D microtissue generation. Sterile 2% (wt/vol) agarose in PBS were pipetted into 35-microwell molds with hemispherical bottoms (FIG. 1C; 3D Petri Dish®, MicroTissues Inc., see MilliporeSigma, St. Louis, Mo., USA). After casted, hydrogels equilibrated in RPMI/B27 media with 1% Pen/Strep overnight in an incubator. Lactate-purified hiPSC-cardiomyocytes were then harvested, singularized, and suspended in RPMI/B27 media with 10% FBS and 1% Pen/Strep, collecting a subset of the cells for flow cytometry analysis of cTnT and MLC2v expression. […] Cells were allowed to settle into the cylindrical recesses for 30 minutes before adding media supplemented with 5 μM ROCK Inhibitor. Culture medium was changed one day post-seeding and replaced every other day. Self-assembling, spheroidal, and scaffold-free 3D microtissues were electrically field stimulated for six-eight days with a 1 Hz, 10.0 V, and 4.0 milliseconds duration bipolar pulse train (C-Pace EP, IonOptix, Westwood, Mass., USA) to precondition the microtissues before optical mapping. […] et al., Proc. Natl. Acad. Sci., U.S.A., 101, 18129-18134 (2004). The 3D microtissues beat synchronously with 1 Hz stimulation within two days, and tissue compaction were observed within three days post-seeding. Optical mapping of cardiac action potential. The inventors transferred hydrogels containing microtissues to a Petri dish on a temperature-controlled chamber (Dual Automatic Temperature Controller TC-344B, Warner Instrument, Hamden, Conn., USA) to maintain ambient temperatures of 35±1° C. throughout imaging. Microtissues were gently perfused in a solution containing (in mM) 140 NaCl, 5.1 KCl, 1 MgCl2, 1 CaCL2, 0.33 NaH2PO4, 5 HEPES, and 7.5 glucose warmed with an inline heater. Microtissues were allowed to equilibrate in the perfusion solution for thirty minutes and subsequently labeled with a voltage-sensitive dye (5 μM di-4-ANEPPS) for five minutes to enable membrane potential (Vm) recordings of action potential. Excess residual dyes were washed out thoroughly before data collection. An active-pixel sensor (CMOS sensor) camera acquired fluorescence images at 1000 frames-per-second, and action potential traces were reconstructed from fluorescence intensity data. Semi-automated analyses of action potential parameters were conducted using an in-house analysis software and included rise time, […] to maximum repolarization rate ([…]), and APD triangulation ([…]). Screening of arrhythmogenic compounds. […] Three molds of microtissues (two atrial cardiomyocytes and one ventricular cardiomyocytes) were used to test the compound 4-aminopyridine under 1 Hz electrical stimulation with a platinum field electrode (Myopacer EP field stimulator, IonOptix, Westwood, Mass., USA). […]

[4] = tested on: hiPSC-derived cardiomyocytes (MLC2v); experiment: Flow cytometry of MLC2v expression in hiPSC-cardiomyocytes; assay type: cell-based, human; settings: supplementation at days 3-6 of differentiation; without it 31±0.2, p<0.05; in % (unit assumed)
Method: Cardiomyocyte differentiation. The inventors differentiated atrial and ventricular cardiomyocytes ([…] ) from GCaMP6f-expressing human induced pluripotent stem cells (hiPSCs; WTC human iPSCs, Gladstone Institutes, San Francisco, Calif., USA) using small molecule modulations of Wnt signaling, as described previously by Burridge et al., Nature Methods, 11, 855-860 (2014), with slight modifications. hiPSCs were cultured on vitronectin coated plates in Essential 8 Medium (E8 media; Thermo Fisher Scientific, Waltham, Calif., USA). Before starting differentiation, hiPSCs were singularized, seeded onto Matrigel-coated plates in E8 media with 5 μM ROCK Inhibitor (RI; Thermo Fisher Scientific, Waltham, Calif., USA) and cultured to 80% confluency, at which point the cells were treated with 4.5 μM CHIR 99021 (Tocris Bioscience, Minneapolis, Minn., USA), a glycogen synthase kinase 3 (GSK3) inhibitor, for 24±1 hours in chemically defined medium CDM3 basal medium (RPMI 1640 Thermo Fisher Scientific, Waltham, Mass., USA) supplemented with L-ascorbic acid and human serum albumin). […] Samples were run on a BD FACSAriaTM Illu Flow Cytometer (BD Biosciences, San Jose, Calif.), and data were analyzed with FlowJo (BD Biosciences, San Jose, Calif.).

With `Nc1ccncc1` [4-Aminopyridine] the APD30 ([1]; 1 μM) was 244.6 ± 38.4 ms, the APD50 ([1]; 1 μM) was 287.8 ± 49.9 ms and the APD80 ([1]; 1 μM) was 329.6 ± 50.6 ms. For the same molecule, the APDTri/APDMxR ([1]; 1 μM) was 0.09 ± 0.01′, the “Rise Time” value ([1]; 1 μM) was 6.9 ± 1.9 ms and the APD30 ([1]; 3 μM) was 233.3 ± 35.8 ms. For the same molecule, the APD50 ([1]; 3 μM) was 275.7 ± 47.7 ms, the APD80 ([1]; 3 μM) was 321.6 ± 54.1 ms and the APDMxR ([1]; 3 μM) was 307.5 ± 55.2 ms. The APDTri/APDMxR ([1]; 3 μM) was 0.10 ± 0.02, the “Rise Time” value ([1]; 3 μM) was 7.1 ± 2.4 ms and the APD30 ([1]; 100 μM) was 236.7 ± 32.5 ms. It also gave an APD50 ([1]; 100 μM) of 280.0 ± 44.0 ms, an APD80 ([1]; 100 μM) of 325.6 ± 48.5 ms and an APDMxR ([1]; 100 μM) of 312.5 ± 51.7 ms. The APDTri/APDMxR ([1]; 100 μM) was 0.10 ± 0.02, the “Rise Time” value ([1]; 100 μM) was 7.5 ± 2.6 ms and the “Change of APD30, APD50, APD80 and APDMxR (in words)” value ([1]; all dosages) was “No significant changes”. For the same molecule, the APD30 ([2]; 1 μM) was 75.2 ± 11.4 ms, the APD50 ([2]; 1 μM) was 95.7 ± 12.9 ms and the APD80 ([2]; 1 μM) was 121.4 ± 16.2 ms. For the same molecule, the APDMxR ([2]; 1 μM) was 126.6 ± 15.8 ms, the APDTri/APDMxR ([2]; 1 μM) was 0.24 ± 0.03 and the “Rise Time” value ([2]; 1 μM, n=3 batches) was 11.9 ± 2.6 ms. It also gave an APD30 ([2]; 3 μM) of 75.2 ± 11.4 ms, an APD50 ([2]; 3 μM) of 97.5 ± 11.4 ms and an APD80 ([2]; 3 μM) of 123.5 ± 14.7 ms. The APDMxR ([2]; 3 μM) was 128.3 ± 12.9 ms, the APDTri/APDMxR ([2]; 3 μM) was 0.24 ± 0.03 and the “Rise Time” value ([2]; 3 μM) was 11.8 ± 2.2 ms. For the same molecule, the “Change of rise time and APDTri (in words)” value ([2]; 100 μM) was “significant increase”, the APD30 ([2]; 100 μM) was 84.0 ± 10.6 ms and the APD50 ([2]; 100 μM) was 104.8 ± 12.0 ms. For the same molecule, the APD80 ([2]; 100 μM) was 129.9 ± 15.9 ms, the APDMxR ([2]; 100 μM) was 136.6 ± 14.6 ms and the APDTri/APDMxR ([2]; 100 μM) was 0.23 ± 0.03. The “Rise Time” value ([2]; 100 μM) was 14.0 ± 3.7 ms and the “Change of APD30, APD50, APD80 and APDMxR (in words)” value ([2]; increasing doses (1, 3, 100 μM)) was “significantly prolonged”.
`COc1cc2c(cc1OC)CC(=O)N(CCCN(C)C[C@H]1Cc3cc(OC)c(OC)cc31)CC2` [Ivabradine] was tested, and the “Effect on spontaneous activity (share of microtissues, in words)” value ([3]; atrial microtissues, 1 μM, no electrical stimulation) was “eliminate spontaneous activity in more than half of the atrial microtissues”, the “Effect on spontaneous action potential events (in words)” value ([3]; atrial microtissues, all tested dosages) was “significantly reduced spontaneous action potential events” and the “Effect on spontaneous activity (in words)” value ([3]; atrial microtissues, higher dosages) was “loss of spontaneous activity”. For the same molecule, the “Voltage trace events (in words)” value ([3]; small subset of spontaneous atrial microtissues, 5 μM, recovered with 1 Hz pacing) was “events resembling failed depolarization”.
In the case of `CC1=C(/C=C/C(C)=C/C=C/C(C)=C/C(=O)O)C(C)(C)CCC1` [Retinoic acid], the “MLC2v+ expression of cardiomyocytes” value [4] is reported as 18±5.
